Source: article PMC6265302, “Widespread bacterial lysine degradation proceeding via glutarate and L-2-hydroxyglutarate” (Nature Communications, 2018)

Experiments:
[1] = biological target: T1, CsiD (Escherichia coli, UniProt P76621); assay: CsiD activity assay, product inhibition; format: biochemical; conditions: reaction product
T1 construct: gene glaH; full ORF, N-terminal 6xHis tag (pET28a), expressed in E. coli BL21(DE3); Fe(II); homotetramer
T1 sequence (P76621 1-325): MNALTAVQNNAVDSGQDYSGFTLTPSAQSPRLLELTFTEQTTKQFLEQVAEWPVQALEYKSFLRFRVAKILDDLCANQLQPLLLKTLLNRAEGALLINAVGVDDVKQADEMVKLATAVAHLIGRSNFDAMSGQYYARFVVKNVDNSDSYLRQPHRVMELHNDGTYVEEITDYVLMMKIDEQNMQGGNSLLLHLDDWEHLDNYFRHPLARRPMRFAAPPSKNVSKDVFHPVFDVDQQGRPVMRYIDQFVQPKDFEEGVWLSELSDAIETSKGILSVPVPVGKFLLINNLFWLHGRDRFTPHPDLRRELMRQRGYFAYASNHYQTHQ

[2] = biological target: T2, CsiR (Escherichia coli, UniProt P37338); assay: filter binding assay with […]-labelled csiD promoter DNA; conditions: 1 mM ligand, Tris-HCl pH 7.6, 5 mM MgCl2; allosteric relief of DNA binding
T2 construct: gene glaR; full ORF, N-terminal 6xHis tag (pET28a), expressed in E. coli BL21(DE3)
T2 sequence (P37338 1-220): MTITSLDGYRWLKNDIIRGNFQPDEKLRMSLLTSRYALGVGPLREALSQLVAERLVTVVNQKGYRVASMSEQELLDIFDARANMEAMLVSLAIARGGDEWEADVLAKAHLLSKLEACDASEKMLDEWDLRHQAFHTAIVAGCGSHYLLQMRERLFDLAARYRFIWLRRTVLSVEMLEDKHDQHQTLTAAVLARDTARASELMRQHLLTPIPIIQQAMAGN

For `O=C(O)CC[C@H](O)C(=O)O` [L-2-hydroxyglutarate], the weak inhibition [1] was “We did observe weak inhibition of CsiD by its product L2HG”.

`O=C(O)CCCC(=O)O` [glutarate] was tested, and the “reduced DNA binding at 1 mM” value [2] was “repressive effect at the csiD promoter site is specifically relieved upon GA binding”.
